Laboratory results as given in patent publication US4027039A (priority 1975, dated 1977).
“And” between values parts separate entries of the source, which are not always exact repeats. Equal entries are not always repeated. Where two headings read alike, the source gives them in different places.

Assays:
Herpes virus [1] = tested on: Herpes virus
[2] = tested on: Influenza B Massachusetts virus; assay: Influenza B Mass. in mice, oral; late read day 5 (Table 39), 7 (Table 40), 11 (Tables 61, 65); control fraction 16/20 (Table 61), else 100%; type: in vivo, mouse
Procedure: A portion of a commercially available sample of amantadine was recrystallized from isopropanol. The activity of the material against Influenza B Mass. was tested for the sample as obtained, the recrystallized portion, and the mother liquor obtained from recrystallizing the portion.

viral infections = assay: Antiviral screening in animals, general statements; conditions: mouse, in vivo
[3] = tested on: Influenza, Ann Arbor virus; assay: Influenza Ann Arbor in mice, subcutaneous; late read day 9 (Table 11), 7 (Tables 12, 14), 5 (Table 13); type: in vivo, mouse
[4] = tested on: Influenza, Ann Arbor virus; assay: Influenza Ann Arbor in mice, oral; schedule by table; late read day 5 (Tables 15, 25, 29, 30), 6 (18, 20, 22, 23, 26, 27, 28, 54), 7 (14, 19, 21, 24, 53, 56), 8 (16, 17, 51), 9 (11, 55); type: in vivo, mouse
Vaccinia IHD virus = type: in vivo, mouse
Herpes virus [5] = assay: Herpes virus in chicken eggs, single dose 24 hours pre-infection; type: in vivo, chick embryo

## NNC(=S)NC12CC3CC(CC(C3)C1)C2
Herpes virus [1]; total dose 4 pg
  No. animals surviving when 18/20 of controls are dead: 1
  Survivors: 1
Herpes virus [1]; total dose 40 pg
  No. animals surviving when 18/20 of controls are dead: 1
  Survivors: 1
Herpes virus [1]; total dose 400 pg
  No. animals surviving when 18/20 of controls are dead: 3
  Survivors: 3
Herpes virus [1]; total dose 4 ng
  No. animals surviving when 18/20 of controls are dead: 2
  Survivors: 2
Herpes virus [1]; total dose 40 ng
  No. animals surviving when 18/20 of controls are dead: 2
  Survivors: 2
Herpes virus [1]; total dose 400 ng
  No. animals surviving when 18/20 of controls are dead: 3
  Survivors: 3

## NC(=S)NN=C1CCCCC1 [Cyclohexanone, thiosemicarBazone, Cyclohexanone, thiosemicarbazone]
[2]; total dose .000005 μg (5 pg)
  No. animals surviving after 5 days (Table 61: 11 days): 7
  No. animals surviving when 100% (Table 61: 16/20) of controls are dead: 5
  Survivors: 5
[2]; total dose .00005 μg (50 pg)
  No. animals surviving after 5 days (Table 61: 11 days): 4
  No. animals surviving when 100% (Table 61: 16/20) of controls are dead: 3
  Survivors: 2
[2]; total dose .0005 μg (500 pg)
  No. animals surviving after 5 days (Table 61: 11 days): 2
  No. animals surviving when 100% (Table 61: 16/20) of controls are dead: 2
  Survivors: 2
[2]; total dose .005 μg (5 ng)
  No. animals surviving after 5 days (Table 61: 11 days): 3
  No. animals surviving when 100% (Table 61: 16/20) of controls are dead: 2
  Survivors: 2
[2]; total dose .05 μg (50 ng)
  No. animals surviving after 5 days (Table 61: 11 days): 7
  No. animals surviving when 100% (Table 61: 16/20) of controls are dead: 7
  Survivors: 5
[2]; total dose .5 μg (500 ng)
  No. animals surviving after 5 days (Table 61: 11 days): 2
  No. animals surviving when 100% (Table 61: 16/20) of controls are dead: 1
  Survivors: 1

## N#CCC(=O)NN [Cyonacetic Acid Carbazide, Cyanoacetic Acid Hydrazide]
[2]; total dose .000005 μg (5 pg)
  No. animals surviving after 5 days (Table 61: 11 days): 3
  No. animals surviving when 100% (Table 61: 16/20) of controls are dead: 3
  Survivors: 3
[2]; total dose .00005 μg (50 pg)
  No. animals surviving after 5 days (Table 61: 11 days): 4
  No. animals surviving when 100% (Table 61: 16/20) of controls are dead: 4
  Survivors: 4
[2]; total dose .0005 μg (500 pg)
  No. animals surviving after 5 days (Table 61: 11 days): 8
  No. animals surviving when 100% (Table 61: 16/20) of controls are dead: 5
  Survivors: 5
[2]; total dose .005 μg (5 ng)
  No. animals surviving after 5 days (Table 61: 11 days): 2
  No. animals surviving when 100% (Table 61: 16/20) of controls are dead: 2
  Survivors: 1
[2]; total dose .05 μg (50 ng)
  No. animals surviving after 5 days (Table 61: 11 days): 4
  No. animals surviving when 100% (Table 61: 16/20) of controls are dead: 4
  Survivors: 3
[2]; total dose .5 μg (500 ng)
  No. animals surviving after 5 days (Table 61: 11 days): 5
  No. animals surviving when 100% (Table 61: 16/20) of controls are dead: 4
  Survivors: 4

## NNc1nncc2ccccc12 [Hydralazine, hydralazine, reference compound]
Herpes virus [1]; mouse, in vivo
  activity in words: effective

## NC12CC3CC(CC(C3)C1)C2 [Recrystallized amantadine, amantadine, reference compound]
[2]; total dose 60 ng
  No. animals surviving after 11 days: 4
  Survivors: 2
[2]; total dose 600 ng
  No. animals surviving after 11 days: 3
  Survivors: 3
[2]; total dose 6 μg
  No. animals surviving after 11 days: 5
  Survivors: 5
[2]; total dose 60 μg
  No. animals surviving after 11 days: 5
  Survivors: 2
[2]; total dose 600 μg
  No. animals surviving after 11 days: 3
  Survivors: 2
[2]; total dose 6 mg
  No. animals surviving after 11 days: 6
  Survivors: 4

## N=C(N)NN [aminoguanidine, bicarbonate]
[2]; total dose 40 pg
  Survivors: 0
[2]; total dose 400 pg
  Survivors: 2
[2]; total dose 4 ng
  Survivors: 0
[2]; total dose 40 ng
  Survivors: 1
[2]; total dose 400 ng
  Survivors: 1
[2]; total dose 4 μg
  Survivors: 1
Viral infections
  activity in words: very pronounced protective effects

## N=C(N)NN [aminoguanidine]
[3]; subcutaneous, only at one dose level
  survival: 50%
[3]; total dose 3 μg
  No. animals surviving after 7 days: 6
  Survivors: 2
[3]; total dose 30 μg
  Survivors: 2
[3]; total dose .0003 μg
  No. animals surviving after 7 days: 8
  Survivors: 5
[3]; total dose .003 μg
  No. animals surviving after 7 days: 8
  Survivors: 0
[3]; total dose .03 μg
  Survivors: 1
[3]; total dose .3 μg
  Survivors: 1
[4]; oral
  activity in words: most active
[4]; oral, high dose
  treated animals survived: 50%
[4]; total dose 300 pg
  No. animals surviving after 5-7 days: 6
  Survivors: 1
[4]; total dose 3 ng
  Survivors: 1
[4]; total dose 30 ng
  Survivors: 2
[4]; total dose 300 ng
  Survivors: 4
[4]; total dose 3 μg
  No. animals surviving after 5-7 days: 8
  Survivors: 3
[4]; total dose 30 μg
  No. animals surviving after 5-7 days: 8

## NN [hydrazine]
Vaccinia IHD virus; 10 ng, day 6
  Statistical Significance of Tail Lesions: < .01
Vaccinia IHD virus; 10 ng, day 7
  Statistical Significance of Tail Lesions: < .05
Vaccinia IHD virus; 10 ng, day 11
  Statistical Significance of Tail Lesions: < .01
Vaccinia IHD virus; 10 ng, day 12
  Statistical Significance of Tail Lesions: < .01
Vaccinia IHD virus; 10 ng, day 14
  Statistical Significance of Tail Lesions: < .01
Vaccinia IHD virus; 10 ng, day 17
  Statistical Significance of Tail Lesions: < .01
Vaccinia IHD virus; 10 ng, day 21
  Statistical Significance of Tail Lesions: < .01
Vaccinia IHD virus; 1 μg, day 10
  Statistical Significance of Tail Lesions: < .01
Vaccinia IHD virus; 1 μg, day 11
  Statistical Significance of Tail Lesions: < .01
Vaccinia IHD virus; 1 μg, day 12
  Statistical Significance of Tail Lesions: < .01
Vaccinia IHD virus; 1 μg, day 14
  Statistical Significance of Tail Lesions: < .01
Vaccinia IHD virus; 1 μg, day 17
  Statistical Significance of Tail Lesions: < .01
Vaccinia IHD virus; 1 μg, day 21
  Statistical Significance of Tail Lesions: < .01
Vaccinia IHD virus; 10 [μg], day 10
  Statistical Significance of Tail Lesions: < .05
Vaccinia IHD virus; 10 [μg], day 11
  Statistical Significance of Tail Lesions: < .01
Vaccinia IHD virus; 10 [μg], day 12
  Statistical Significance of Tail Lesions: < .01
Vaccinia IHD virus; 10 [μg], day 14
  Statistical Significance of Tail Lesions: < .01
Vaccinia IHD virus; 10 [μg], day 17
  Statistical Significance of Tail Lesions: < .01
Vaccinia IHD virus; 10 [μg], day 21
  Statistical Significance of Tail Lesions: < .01
Vaccinia IHD virus; 100 [ng], day 5
  Statistical Significance of Tail Lesions: < .05
Vaccinia IHD virus; 100 [ng], day 6
  Statistical Significance of Tail Lesions: < .01
Vaccinia IHD virus; 100 [ng], day 7
  Statistical Significance of Tail Lesions: < .01
Vaccinia IHD virus; 100 [ng], day 8
  Statistical Significance of Tail Lesions: < .05
Vaccinia IHD virus; 100 [ng], day 10
  Statistical Significance of Tail Lesions: < .01
Vaccinia IHD virus; 100 [ng], day 11
  Statistical Significance of Tail Lesions: < .01
Vaccinia IHD virus; 100 [ng], day 12
  Statistical Significance of Tail Lesions: < .01
Vaccinia IHD virus; 100 [ng], day 14
  Statistical Significance of Tail Lesions: < .01
Vaccinia IHD virus; 100 [ng], day 17
  Statistical Significance of Tail Lesions: < .01
Vaccinia IHD virus; 100 [ng], day 21
  Statistical Significance of Tail Lesions: < .01
Herpes virus [1]; total dose .0005 μg
  No. animals surviving after 6-9 days: 6 and 5
Herpes virus [1]; total dose .005 μg
  No. animals surviving after 6-9 days: 6
Herpes virus [1]; total dose .05 μg
  No. animals surviving after 6-9 days: 3 and 5
  No. animals surviving when 100% (or given fraction) of controls are dead: 1
Herpes virus [1]; total dose .5 μg
  No. animals surviving when 100% (or given fraction) of controls are dead: 1
[4]; oral
  activity in words: much less significant activity
Herpes virus [5]; 2 μg
  Deaths on day 1: 3
  Deaths on day 2: 4
  Deaths on day 3: 1
  Deaths on day 4: 1
  No. dying 5-22 day: 0
  No. hatched: 1
  No. living longer than controls: 1
  Total deaths, 4th day: 9
Herpes virus [5]; 20 μg
  Deaths on day 1: 3
  Deaths on day 3: 4
  No. dying 5-22 day: 0
  No. hatched: 1
  No. living longer than controls: 1
  Total deaths, 4th day: 11
Herpes virus [5]; .00005 μg
  Deaths on day 3: 5
  No. dying 5-22 day: 0
  No. living longer than controls: 1
  Total deaths, 4th day: 9
Herpes virus [5]; .0005 μg
  Deaths on day 2: 6
  Deaths on day 3: 4
  No. dying 5-22 day: 0
  No. living longer than controls: 0
  Total deaths, 4th day: 12
Herpes virus [5]; .005 μg
  Deaths on day 2: 7
  Deaths on day 3: 4
  No. dying 5-22 day: 0
  No. living longer than controls: 0
  Total deaths, 4th day: 11
Herpes virus [5]; .05 μg
  Deaths on day 2: 5
  Deaths on day 3: 3
  No. dying 5-22 day: 0
  No. living longer than controls: 0
  Total deaths, 4th day: 10
Herpes virus [5]; .5 μg
  Deaths on day 3: 5
  Deaths on day 4: 1
  No. dying 5-22 day: 0
  No. living longer than controls: 0
  Total deaths, 4th day: 10
Herpes virus [5]; all doses
  Total no. living longer than controls: 3

## O=C(C=NO)c1ccccc1 [phenylglyoxaloxime]
Viral infections
  activity in words: active

## N-hydroxyphthalamide
Viral infections
  activity in words: active
